Reference: paper PMC12655351, “Synthesis and Anticancer Activity Evaluation of New 5-((5-Nitrofuran-2-yl)allylidene)-2-thioxo-4-thiazolidinones” (Pharmaceuticals, 2025)

Legend:
Ovarian cancer [1] = conditions: Ovarian cancer subpanel
MDA-MB-231/ATCC [2] = conditions: 48 h
[3] = system: panel of 60 cancer cell lines; experiment: cells; conditions: Homo sapiens, read-out: MG_MID GI50
NCI-H522 = experiment: NCI-60 SRB screen; conditions: NCI-H522, 48 h; for GI50 / CC50: Homo sapiens; for CC50: read-out: LC50, NCI-H522, 48 h
SK-OV-3 = experiment: cells; conditions: Homo sapiens, SK-OV-3, 48 h; for CC50: read-out: LC50, SK-OV-3, 48 h
M14 = experiment: NCI-60 SRB screen; conditions: M14, 48 h; for GI50 / CC50: Homo sapiens; for CC50: read-out: LC50, M14, 48 h
NCI-H23 = experiment: cells; conditions: Homo sapiens, NCI-H23, 48 h; for CC50: read-out: LC50, NCI-H23, 48 h
Prostate Cancer = experiment: cells; conditions: Homo sapiens, read-out: MG_MID GI50
MDA-MB-435 = experiment: cells; conditions: Homo sapiens, MDA-MB-435, 48 h; for CC50: read-out: LC50, MDA-MB-435, 48 h
EKVX = experiment: NCI-60 SRB screen; conditions: 48 h; for GI50 / CC50: Homo sapiens; for CC50: read-out: LC50, EKVX, 48 h
NCI-H322M = experiment: NCI-60 SRB screen; conditions: 48 h; for GI50 / CC50: Homo sapiens; for CC50: read-out: LC50, NCI-H322M, 48 h
MCF7 = experiment: NCI-60 SRB screen; conditions: MCF7, 48 h; for GI50: Homo sapiens
HS 578T = experiment: cells; conditions: Homo sapiens, 48 h; for GI50: HS 578T; for CC50: read-out: LC50
U251 = experiment: NCI-60 SRB screen; conditions: for GI50 / CC50: Homo sapiens, U-251, 48 h; for GI50 / TGI: U251, 48 h; for CC50: read-out: LC50, U251, 48 h
Melanoma = experiment: cells; conditions: Homo sapiens; for GI50: read-out: MG_MID GI50; for CC50: read-out: MG_MID LC50
COLO 205 [4] = conditions: COLO 205, 48 h
OVCAR-4 = conditions: OVCAR-4, 48 h
MDA-MB-231/ATCC [5] = experiment: cells; conditions: Homo sapiens, MDA-MB-231, 48 h; for GI50: MDA-MB-231/ATCC, 48 h; for CC50: read-out: LC50, MDA-MB-231/ATCC, 48 h
OVCAR-8 [6] = experiment: cells; conditions: Homo sapiens, OVCAR-8, 48 h; for CC50: read-out: LC50, OVCAR-8, 48 h
BT-549 = conditions: BT-549, 48 h
HCC-2998 [7] = conditions: for TGI: HCC-2998, 48 h
OVCAR-8 [8] = conditions: OVCAR-8, 48 h
[9] = system: caspase-3 in MDA-MB-231 cells; experiment: caspase-3 ELISA; format: cell-based, human; conditions: MDA-MB-231, 10 μM (highest concentration), 24 h
Method: To confirm the activity of the caspase pathway, an effector caspase-3 was assayed on MCF-7 and MDA-MB-231 cell lines after 24 h of treatment using the ELISA method. Novel 4-thiazolidinone derivatives were tested in concentrations of 1 and 5 μM for the MCF-7 cell line and 5 and 10 μM for the MDA-MB-231 cell line.
Using a SimpleStep ELISA kit (Abcam, Cambridge, UK), we determined the levels of cytochrome C and caspase-3 in cells’ lysates with 2b, 12b, and 14b (1 and 5 μM for the MCF-7 cell line and 5 and 10 μM for the MDA-MB-231) and doxorubicin in concentrations of 1 and 5 μM for both lines after 24 h incubation. Assays were performed according to the manufacturer’s protocols.

SN12C = experiment: cells; conditions: Homo sapiens, 48 h; for CC50: read-out: LC50, SN12C, 48 h
CNS cancer = experiment: cells; conditions: Homo sapiens; for GI50: read-out: MG_MID GI50; for CC50: read-out: MG_MID LC50
TK-10 = experiment: cells; conditions: Homo sapiens, TK-10, 48 h; for CC50: read-out: LC50, TK-10, 48 h
HCT-15 = experiment: NCI-60 SRB screen; conditions: HCT-15, 48 h
Ovarian cancer [10] = experiment: cells; conditions: Homo sapiens; for GI50: read-out: MG_MID GI50; for CC50: read-out: MG_MID LC50
UACC-257 = conditions: UACC-257, 48 h
MOLT-4 = experiment: cells; conditions: Homo sapiens, MOLT-4, 48 h; for CC50: read-out: LC50, MOLT-4, 48 h
HCC-2998 [11] = experiment: cells; conditions: Homo sapiens, HCC 2998, 48 h
COLO 205 [12] = experiment: cells; conditions: Homo sapiens, COLO 205, 48 h

`O=C(O)CCN1C(=O)/C(=C/C=C/c2ccc([N+](=O)[O-])o2)SC1=S` [12b, 3-((Z)-5-((E)-3-(5-Nitrofuran-2-yl)allylidene)-4-oxo-2-thioxothiazolidin-3-yl)propanoic acid] was tested, and the “MG_MID TGI” value (Ovarian cancer [1]) was 5.84 µM, the TGI (MDA-MB-231/ATCC [2]) was 3.24 µM and the GI50 [3] was 1.68 µM. It also gave a GI50 (NCI-H522) of 1.1 µM, a CC50 (NCI-H522) of 5.52 µM and a TGI (NCI-H522) of 2.46 µM. It also gave a GI50 (SK-OV-3) of 4.7 µM, a CC50 (SK-OV-3) of 43.7 µM and a GI50 (M14) of 1.48 µM. It also gave a CC50 (M14) of 6.31 µM, a TGI (M14) of 3.05 µM and a GI50 (NCI-H23) of 1.69 µM. It also gave a CC50 (NCI-H23) of 6.7 µM, a GI50 (Prostate Cancer) of 2.55 µM and a GI50 (MDA-MB-435) of 1.16 µM. For the same compound, the CC50 (MDA-MB-435) was 5.32 µM, the TGI (EKVX) was 9.26 µM and the GI50 (EKVX) was 2.69 µM. The CC50 (EKVX) was 31.1 µM, the TGI (NCI-H322M) was 19.8 µM and the GI50 (NCI-H322M) was 7.06 µM. It also gave a CC50 (NCI-H322M) of 44.7 µM, a GI50 (MCF7) of 0.46 µM and a TGI (MCF7) of 2.10 µM. For the same compound, the GI50 (HS 578T) was 1.45 µM, the CC50 (HS 578T) was over 100 µM and the GI50 (U251) was 1.07 µM. For the same compound, the CC50 (U251) was 5.53 µM, the TGI (U251) was 2.43 µM and the GI50 (Melanoma) was 1.14 µM. It also gave a CC50 (Melanoma) of 5.56 µM, a TGI (COLO 205 [4]) of 12.4 µM and a TGI (OVCAR-4) of 3.79 µM. The GI50 (MDA-MB-231/ATCC [5]) was 1.7 µM, the CC50 (MDA-MB-231/ATCC [5]) was 6.15 µM and the GI50 (OVCAR-8 [6]) was 1.84 µM. The CC50 (OVCAR-8 [6]) was 28.2 µM, the TGI (BT-549) was 2.88 µM and the “growth GP” value (HCC-2998 [7]; HCC-2998, 10 μM, 48 h) was -95.81%. The TGI (HCC-2998 [7]) was 9.26 µM, the TGI (OVCAR-8 [8]) was 7.11 µM and the “change of caspase-3 concentration” value [9] was “significant increase”. For the same compound, the GI50 (SN12C) was 1.07 µM, the CC50 (SN12C) was 5.04 µM and the GI50 (CNS cancer) was 1.62 µM. It also gave a CC50 (CNS cancer) of 12.3 µM, a GI50 (TK-10) of 2.02 µM and a CC50 (TK-10) of 7.19 µM. The TGI (HCT-15) was 3.50 µM, the GI50 (Ovarian cancer [10]) was 2.05 µM and the CC50 (Ovarian cancer [10]) was 17.7 µM. For the same compound, the TGI (UACC-257) was 4.08 µM, the GI50 (MOLT-4) was 0.58 µM and the CC50 (MOLT-4) was over 100 µM.
For `CC(C(=O)O)N1C(=O)/C(=C/C=C/c2ccc([N+](=O)[O-])o2)SC1=S` (stereo not shown) [2b, 2-((Z)-5-((E)-3-(5-Nitrofuran-2-yl)allylidene)-4-oxo-2-thioxothiazolidin-3-yl)propanoic acid], the “change of caspase-3 concentration” value [9] was “slight increase”.
`CCCC(C(=O)O)N1C(=O)/C(=C/C=C/c2ccc([N+](=O)[O-])o2)SC1=S` (stereo not shown) [4b, 2-((Z)-5-((E)-3-(5-Nitrofuran-2-yl)allylidene)-4-oxo-2-thioxothiazolidin-3-yl)pentanoic acid] was tested, and the “MG_MID TGI” value (Ovarian cancer [1]) was 8.71 µM, the TGI (MDA-MB-231/ATCC [2]) was 4.29 µM and the GI50 [3] was 2.17 µM. The GI50 (NCI-H522) was 1.7 µM, the CC50 (NCI-H522) was 6.48 µM and the TGI (NCI-H522) was 3.32 µM. The GI50 (SK-OV-3) was 5.8 µM, the CC50 (SK-OV-3) was 47.2 µM and the GI50 (M14) was 1.83 µM. For the same compound, the CC50 (M14) was 7.74 µM, the TGI (M14) was 3.77 µM and the GI50 (NCI-H23) was 1.97 µM. For the same compound, the CC50 (NCI-H23) was 8.57 µM, the GI50 (Prostate Cancer) was 2.65 µM and the GI50 (HCC-2998 [11]) was 1.83 µM. The GI50 (MDA-MB-435) was 1.62 µM, the CC50 (MDA-MB-435) was 6.77 µM and the TGI (EKVX) was 7.77 µM. It also gave a GI50 (EKVX) of 2.53 µM, a CC50 (EKVX) of 27.7 µM and a TGI (NCI-H322M) of 14.2 µM. The GI50 (NCI-H322M) was 3.72 µM, the CC50 (NCI-H322M) was 38.1 µM and the GI50 (MCF7) was 1.6 µM. For the same compound, the TGI (MCF7) was 3.70 µM, the GI50 (HS 578T) was 1.87 µM and the CC50 (HS 578T) was over 100 µM. It also gave a GI50 (U251) of 1.69 µM, a CC50 (U251) of 6.7 µM and a TGI (U251) of 3.37 µM. For the same compound, the GI50 (Melanoma) was 1.67 µM, the CC50 (Melanoma) was 7.32 µM and the TGI (COLO 205 [4]) was 3.60 µM. The TGI (OVCAR-4) was 19.1 µM, the GI50 (MDA-MB-231/ATCC [5]) was 2.21 µM and the CC50 (MDA-MB-231/ATCC [5]) was 8.33 µM. The GI50 (OVCAR-8 [6]) was 1.98 µM, the CC50 (OVCAR-8 [6]) was 13 µM and the TGI (BT-549) was 3.37 µM. For the same compound, the TGI (HCC-2998 [7]) was 3.33 µM, the TGI (OVCAR-8 [8]) was 4.64 µM and the GI50 (SN12C) was 1.76 µM. For the same compound, the CC50 (SN12C) was 9.32 µM, the GI50 (CNS cancer) was 1.93 µM and the CC50 (CNS cancer) was 11.6 µM. For the same compound, the GI50 (TK-10) was 3.27 µM, the CC50 (TK-10) was 27.6 µM and the TGI (HCT-15) was 3.39 µM. For the same compound, the GI50 (HCT-15; Homo sapiens) was 1.65 µM, the CC50 (HCT-15; Homo sapiens, read-out: LC50, HCT-15, 48 h) was 6.97 µM and the GI50 (COLO 205 [12]) was 1.95 µM. It also gave a CC50 (COLO 205 [12]; read-out: LC50, COLO 205, 48 h) of 6.66 µM, a GI50 (Ovarian cancer [10]) of 3.12 µM and a CC50 (Ovarian cancer [10]) of 23 µM. For the same compound, the TGI (UACC-257) was 4.82 µM, the GI50 (MOLT-4) was 3.3 µM and the CC50 (MOLT-4) was over 100 µM.
